Assay results: US10233184B2, “7-substituted sulfonimidoylpurinone compounds and derivatives for the treatment and prophylaxis of virus infection” (Hoffmann-La Roche Inc., priority 2016, dated 2019)
Read-outs that look alike come from different tables or passages of the source.

Key:
human TLR7 = target: T1, human TLR7 (Homo sapiens, UniProt Q9NYK1); experiment: HEK293-Blue-hTLR-7 cells assay (SEAP reporter); assay type: cell-based; settings: for EC50: HEK293-Blue-hTLR-7 cells, SEAP reporter, 20 hrs; for Ratio (EC50(prodrug)/EC50(active form)): EC50 of prodrug over EC50 of corresponding active form
T1 sequence (Q9NYK1 27-1049): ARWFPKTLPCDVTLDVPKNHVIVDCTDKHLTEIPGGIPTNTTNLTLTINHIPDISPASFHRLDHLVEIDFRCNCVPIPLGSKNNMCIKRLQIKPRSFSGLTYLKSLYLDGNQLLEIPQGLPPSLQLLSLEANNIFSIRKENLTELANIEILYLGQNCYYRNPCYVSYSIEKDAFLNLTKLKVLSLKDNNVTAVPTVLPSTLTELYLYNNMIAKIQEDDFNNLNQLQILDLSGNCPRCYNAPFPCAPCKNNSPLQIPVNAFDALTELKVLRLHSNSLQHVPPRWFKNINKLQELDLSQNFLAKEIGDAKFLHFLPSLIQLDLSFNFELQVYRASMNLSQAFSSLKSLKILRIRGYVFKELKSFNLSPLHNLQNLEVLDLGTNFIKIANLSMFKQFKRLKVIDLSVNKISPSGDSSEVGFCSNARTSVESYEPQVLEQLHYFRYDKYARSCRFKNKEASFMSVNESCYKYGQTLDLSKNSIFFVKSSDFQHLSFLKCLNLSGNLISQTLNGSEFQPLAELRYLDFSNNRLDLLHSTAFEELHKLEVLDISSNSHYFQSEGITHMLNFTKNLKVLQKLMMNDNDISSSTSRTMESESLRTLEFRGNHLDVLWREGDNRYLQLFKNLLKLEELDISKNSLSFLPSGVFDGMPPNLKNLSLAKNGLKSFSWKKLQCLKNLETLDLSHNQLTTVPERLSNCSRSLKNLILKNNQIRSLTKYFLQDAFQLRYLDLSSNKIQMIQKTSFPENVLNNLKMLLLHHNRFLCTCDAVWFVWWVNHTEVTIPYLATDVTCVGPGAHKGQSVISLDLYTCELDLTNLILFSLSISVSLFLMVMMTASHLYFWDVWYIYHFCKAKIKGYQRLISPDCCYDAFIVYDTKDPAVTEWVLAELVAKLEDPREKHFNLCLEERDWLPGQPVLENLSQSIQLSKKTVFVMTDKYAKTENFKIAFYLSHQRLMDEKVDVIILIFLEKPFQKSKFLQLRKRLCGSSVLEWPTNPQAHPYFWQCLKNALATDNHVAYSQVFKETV
Source text: HEK293-Blue-hTLR-7 Cells Assay:
A stable HEK293-Blue-hTLR-7 cell line was purchased from InvivoGen (Cat.#: hkb-htlr7, San Diego, Calif., USA). These cells were designed for studying the stimulation of human TLR7 by monitoring the activation of NF-κB. A SEAP (secreted embryonic alkaline phosphatase) reporter gene was placed under the control of the IFN-β minimal promoter fused to five NF-κB and AP-1-binding sites. The SEAP was induced by activating NF-κB and AP-1 via stimulating HEK-Blue hTLR7 cells with TLR7 ligands. Therefore the reporter expression was regulated by the NF-κB promoter upon stimulation of human TLR7 for 20 hrs. The cell culture supernatant SEAP reporter activity was determined using QUANTI-Blue™ kit (Cat.#: rep-qbl, Invivogen, San Diego, Calif., USA) at a wavelength of 640 nm, a detection medium that turns purple or blue in the presence of alkaline phosphatase.
HEK293-Blue-hTLR7 cells were incubated at a density of 250,000˜450,000 cells/mL in a volume of 180 μL in a 96-well plate in Dulbecco's Modified Eagle's medium (DMEM) containing 4.5 g/L glucose, 50 U/mL penicillin, […], […], 2 mM L-glutamine, 10% (V/V) heat-inactivated fetal bovine serum for 24 hrs. Then the HEK293-Blue-hTLR-7 cells were incubated with addition of 20 μL test compound in a serial dilution in the presence of final DMSO at 1% and perform incubation under 37° C. in a CO2 incubator for 20 hrs. Then 20 μL of the supernatant from each well was incubated with 180 μL Quanti-blue substrate solution at 37° C. for 2 hrs and the absorbance was read at 620˜655 nm using a spectrophotometer. The signalling pathway that TLR7 activation leads to downstream NF-κB activation has been widely accepted, and therefore similar reporter assay was also widely used for evaluating TLR7 agonist (Tsuneyasu Kaisho and Takashi Tanaka, Trends in Immunology, Volume 29, Issue 7, July 2008, […]; Hiroaki Hemmi et al, Nature Immunology 3, 196-200 (2002)).
The Compounds and Examples of the present invention were tested in HEK293-hTLR-7 assay for their TLR7 agonism activity as described herein and results are listed in Table 1. […] The calculated ratio of EC50(prodrug)/EC50(active form) were within the range from 32 to about 7600.

[1] = Single dose PK study in male Wister-Han rats; assay type: in vivo; settings: male, Wister-Han, rat, plasma, po, 5 mg/kg, 5 mg/kg oral dosing of active form
Procedure: The single dose PK in Male Wister-Han Rats was performed to assess pharmacokinetic properties of tested compounds. Two groups of animals were dosed via Gavage (POE) of the respective compound. […] Blood samples were placed into tubes containing EDTA-K2 anticoagulant and centrifuged at 5000 rpm for 6 min at 4° C. to separate plasma from the samples. After centrifugation, the resulting plasma was transferred to clean tubes for bioanalysis of both prodrug and active form on LC/MS/MS. In the groups that prodrug were dosed, the concentration of prodrugs in the plasma samples was under the detection limit. The “tested compound” in Table 8 was used as the internal standard for testing the metabolite (active form) of “dose compound” in vivo. The pharmacokinetic parameters were calculated using non-compartmental module of WinNonlin® Professional 6.2. The peak concentration (Cmax) was recorded directly from experimental observations. The area under the plasma concentration-time curve (AUC0-t) was calculated using the linear trapezoidal rule up to the last detectable concentration. Cmax and AUC0-last are two critical PK parameters related to the in vivo efficacy of the tested compound. Compounds with higher Cmax and AUC0-last will lead to the better in vivo efficacy.

[2] = active form, read-out: HEK293-hTLR-7 EC50 (Active form)
[3] = prodrug, read-out: HEK293-hTLR-7 EC50 (Prodrug)

Structure (SMILES): CCCS(=N)(=O)c1nc(N)c2[nH]c(=O)n(Cc3ccccc3)c2n1 (single isomer, unassigned) [Compound 1e-B]
- EC50 (human TLR7; [2]): 0.086 µM

Structure (SMILES): CCC[S@](=N)(=O)c1nc(N)c2[nH]c(=O)n(Cc3ccc(Cl)cc3)c2n1 (single isomer, unassigned) [Compound 34e-A]
- EC50 (human TLR7; [2]): 0.014 µM

Structure (SMILES): CCC[S@](=N)(=O)c1nc(N)c2[nH]c(=O)n(Cc3ccc(Cl)cc3)c2n1 (single isomer, unassigned) [Compound 34e-B]
- EC50 (human TLR7; [2]): 0.011 µM

Structure (SMILES): CCCS(=N)(=O)c1nc(N)c2[nH]c(=O)n(Cc3ccc(C)cc3)c2n1 (single isomer, unassigned) [Compound 36g-A]
- EC50 (human TLR7; [2]): 0.019 µM

Structure (SMILES): CCCS(=N)(=O)c1nc(N)c2[nH]c(=O)n(Cc3ccc(C)cc3)c2n1 (single isomer, unassigned) [Compound 36g-B]
- EC50 (human TLR7; [2]): 0.022 µM

Structure (SMILES): CCC[S@](=N)(=O)c1nc(N)c2c(n1)n(Cc1ccc(C)cc1)c(=O)n2C(=O)N1CCCC1 (stereo in doubt) [Example 37-B, 6-amino-2-[S(R)-propylsulfonimidoyl]-9-(p-tolylmethyl)-7-(pyrrolidine-1-carbonyl)purin-8-one]
- Ratio (EC50(prodrug)/EC50(active form)) (human TLR7): 2154.5
- EC50 (human TLR7; [3]): 47.4 µM

Structure (SMILES): CCC[S@](=N)(=O)c1nc(N)c2c(n1)n(Cc1ccc(C)cc1)c(=O)n2C(=O)N(C)CCOC (stereo in doubt) [Example 38-B, 6-amino-N-(2-methoxyethyl)-N-methyl-8-oxo-2-[S(R)-propylsulfonimidoyl]-9-(p-tolylmethyl)purine-7-carboxamide]
- Ratio (EC50(prodrug)/EC50(active form)) (human TLR7): 886.4
- EC50 (human TLR7; [3]): 19.5 µM

Structure (SMILES): CCN(C)C(=O)n1c(=O)n(Cc2ccc(C)cc2)c2nc([S@@](=N)(=O)CC)nc(N)c21 (stereo in doubt) [Example 44-B, 6-Amino-N-ethyl-2-[S(R)-ethylsulfonimidoyl]-N-methyl-8-oxo-9-(p-tolylmethyl)purine-7-carboxamide]
- Ratio (EC50(prodrug)/EC50(active form)) (human TLR7): 879.1
- EC50 (human TLR7; [3]): 96.7 µM

Structure (SMILES): CCCS(=N)(=O)c1nc(N)c2[nH]c(=O)n(Cc3ccccc3)c2n1 (stereo not shown) [Compound 1e, 6-amino-9-benzyl-2-(propylsulfonimidoyl)-7H-purin-8-one]
- EC50 (human TLR7; [2]): 0.065 µM

Structure (SMILES): CCS(=N)(=O)c1nc(N)c2[nH]c(=O)n(Cc3ccc(Cl)cc3)c2n1 (stereo not shown) [Compound 41c, 6-amino-9-[(4-chlorophenyl)methyl]-2-(ethylsulfonimidoyl)-7H-purin-8-one]
- EC50 (human TLR7; [2]): 0.053 µM

Structure (SMILES): CCCCN(C)C(=O)n1c(=O)n(Cc2ccc(Cl)cc2)c2nc([S@@](=N)(=O)CCC)nc(N)c21 [Example 34-A, 6-Amino-N-butyl-9-[(4-chlorophenyl)methyl]-N-methyl-8-oxo-2-[S(S)-propylsulfonimidoyl]purine-7-carboxamide]
- Ratio (EC50(prodrug)/EC50(active form)) (human TLR7): 428.6
- EC50 (human TLR7; [3]): 6 µM

Structure (SMILES): CCCCN(C)C(=O)n1c(=O)n(Cc2ccc(Cl)cc2)c2nc([S@@](=N)(=O)CCC)nc(N)c21 [Example 34-B, 6-amino-N-butyl-9-[(4-chlorophenyl)methyl]-N-methyl-8-oxo-2-[S(S)-propylsulfonimidoyl]purine-7-carboxamide]
- Ratio (EC50(prodrug)/EC50(active form)) (human TLR7): 578.2
- EC50 (human TLR7; [3]): 6.36 µM

Structure (SMILES): CCC[S@](=N)(=O)c1nc(N)c2c(n1)n(Cc1ccc(C)cc1)c(=O)n2C(=O)N1CCCC1 [Example 37-A, 6-Amino-2-[S(S)-propylsulfonimidoyl]-9-(p-tolylmethyl)-7-(pyrrolidine-1-carbonyl)purin-8-one]
- Ratio (EC50(prodrug)/EC50(active form)) (human TLR7): 1400
- EC50 (human TLR7; [3]): 26.6 µM

Structure (SMILES): CCC[S@](=N)(=O)c1nc(N)c2c(n1)n(Cc1ccc(C)cc1)c(=O)n2C(=O)N(C)CCOC [Example 38-A, 6-Amino-N-(2-methoxyethyl)-N-methyl-8-oxo-2-[S(S)-propylsulfonimidoyl]-(p-tolylmethyl)purine-7-carboxamide]
- EC50 (human TLR7; [3]): 26.2 µM

Structure (SMILES): CCCS(=N)(=O)c1nc(N)c2c(n1)n(Cc1ccc(C)cc1)c(=O)n2C(=O)N(C)CC (stereo not shown) [Example 39, 6-Amino-N-ethyl-N-methyl-8-oxo-2-(propylsulfonimidoyl)-9-(p-tolylmethyl)purine-7-carboxamide]
- Ratio (EC50(prodrug)/EC50(active form)) (human TLR7): 159.3
- EC50 (human TLR7; [3]): 4.3 µM

Structure (SMILES): CCCCN(C)C(=O)n1c(=O)n(Cc2ccc(C)cc2)c2nc(S(=N)(=O)CCC)nc(N)c21 (stereo not shown) [Example 40, 6-Amino-N-butyl-N-methyl-8-oxo-2-(propylsulfonimidoyl)-9-(p-tolylmethyl)purine-7-carboxamide]
- Ratio (EC50(prodrug)/EC50(active form)) (human TLR7): 1955.6
- EC50 (human TLR7; [3]): 52.8 µM

Structure (SMILES): CCCN(C)C(=O)n1c(=O)n(Cc2ccc(Cl)cc2)c2nc(S(=N)(=O)CC)nc(N)c21 (stereo not shown) [Example 41]
- Ratio (EC50(prodrug)/EC50(active form)) (human TLR7): 679.2
- EC50 (human TLR7; [3]): 36 µM

Structure (SMILES): CCN(C)C(=O)n1c(=O)n(Cc2ccc(C)cc2)c2nc([S@@](=N)(=O)CC)nc(N)c21 [Example 44-A, 6-Amino-N-ethyl-2[S(S)-ethylsulfonimidoyl]-N-methyl-8-oxo-9-(p-tolylmethyl)purine-7-carboxamide]
- Ratio (EC50(prodrug)/EC50(active form)) (human TLR7): 1868.6
- EC50 (human TLR7; [3]): 65.4 µM

Structure (SMILES): CCS(=O)(=O)c1nc(N)c2[nH]c(=O)n(Cc3ccc(Cl)cc3)c2n1 [Example S-2, reference compound]
- AUC(0-t) [1]: 0.748 µM·h
- Cmax [1]: 52.7 nM
- concentration at 0.25 h ([1]; 0.25 h): 9.49 nM
- concentration at 0.5 h ([1]; 0.5 h): 16.7 nM
- concentration at 1 h ([1]; 1 h): 19.3 nM
- concentration at 2 h ([1]; 2 h): 24.9 nM
- concentration at 4 h ([1]; 4 h): 47.5 nM
- concentration at 8 h ([1]; 8 h): 52.7 nM
- concentration at 24 h ([1]; 24 h): 4.9 nM
